Data taken from PubChem BioAssay (NCI).
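Abbreviation: GI50, concentration required for 50% inhibition of growth. TGI: concentration producing complete growth inhibition.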

Assays:
Experiment in all cases: inhibition of tumour cell growth, NCI panel, 384-well format
OVCAR-3 ovarian = tested on: OVCAR-3 ovarian
HOP-92 NSCLC = tested on: HOP-92 NSCLC
SNB-19 CNS = tested on: SNB-19 CNS
SN12C renal = tested on: SN12C renal
CCRF-CEM leukemia = tested on: CCRF-CEM leukemia
SR leukemia = tested on: SR leukemia
PC-3 prostate = tested on: PC-3 prostate
NCI-H23 lung = tested on: NCI-H23 lung
HL-60(TB) leukemia = tested on: HL-60(TB) leukemia
K-562 leukemia = tested on: K-562 leukemia
RPMI-8226 leukemia = tested on: RPMI-8226 leukemia
MOLT-4 leukemia = tested on: MOLT-4 leukemia
OVCAR-4 ovarian = tested on: OVCAR-4 ovarian
MCF7 breast = tested on: MCF7 breast
COLO 205 colon = tested on: COLO 205 colon
A549 NSCLC = tested on: A549 NSCLC
HCT-15 colon = tested on: HCT-15 colon
A498 renal = tested on: A498 renal
HCC-2998 colon = tested on: HCC-2998 colon
SK-MEL-5 melanoma = tested on: SK-MEL-5 melanoma
M14 melanoma = tested on: M14 melanoma
TK-10 renal = tested on: TK-10 renal
ACHN renal = tested on: ACHN renal
DU-145 prostate = tested on: DU-145 prostate
UO-31 renal = tested on: UO-31 renal
IGROV1 ovarian = tested on: IGROV1 ovarian
UACC-62 melanoma = tested on: UACC-62 melanoma
HCT-116 colon = tested on: HCT-116 colon
OVCAR-8 ovarian = tested on: OVCAR-8 ovarian
MDA-MB-468 breast = tested on: MDA-MB-468 breast
SF-295 CNS = tested on: SF-295 CNS
HT29 colon = tested on: HT29 colon
UACC-257 melanoma = tested on: UACC-257 melanoma
HS 578T breast = tested on: HS 578T breast
KM12 colon = tested on: KM12 colon
SF-539 CNS = tested on: SF-539 CNS
CAKI-1 renal = tested on: CAKI-1 renal
NCI-H226 lung = tested on: NCI-H226 lung
NCI-H460 NSCLC = tested on: NCI-H460 NSCLC
NCI-H522 lung = tested on: NCI-H522 lung
MALME-3M melanoma = tested on: MALME-3M melanoma
BT-549 breast = tested on: BT-549 breast
LOX IMVI melanoma = tested on: LOX IMVI melanoma
SNB-75 CNS = tested on: SNB-75 CNS
SK-OV-3 ovarian = tested on: SK-OV-3 ovarian
SF-268 CNS = tested on: SF-268 CNS
EKVX NSCLC = tested on: EKVX NSCLC
HOP-62 NSCLC = tested on: HOP-62 NSCLC
MDA-MB-435 melanoma = tested on: MDA-MB-435 melanoma
SW-620 colon = tested on: SW-620 colon
SK-MEL-28 melanoma = tested on: SK-MEL-28 melanoma
T-47D breast = tested on: T-47D breast
786-0 renal = tested on: 786-0 renal
RXF 393 renal = tested on: RXF 393 renal
U251 glioblastoma = tested on: U251 glioblastoma
NCI/ADR-RES ovarian = tested on: NCI/ADR-RES ovarian
NCI-H322M lung = tested on: NCI-H322M lung
MDA-MB-231 breast = tested on: MDA-MB-231 breast
OVCAR-5 ovarian = tested on: OVCAR-5 ovarian

**Q.** How did the GI50 (OVCAR-3 ovarian) turn out when `Cc1cc(OCCOCCC(F)(F)P(=O)(O)O)ccc1CCc1cnc2c(N)nc3cc(CCC(=O)O)ccc3c2c1` was run?
**A.** > 100 µM

**Q.** And the TGI (OVCAR-3 ovarian)?
**A.** > 100 µM

**Q.** What about the GI50 (HOP-92 NSCLC) of the same molecule?
**A.** > 100 µM

**Q.** And the TGI (HOP-92 NSCLC)?
**A.** > 100 µM

**Q.** What about the GI50 (SNB-19 CNS) of the same molecule?
**A.** > 100 µM

**Q.** And the TGI (SNB-19 CNS)?
**A.** > 100 µM

**Q.** And the GI50 (SN12C renal)?
**A.** > 100 µM

**Q.** What about the TGI (SN12C renal) of the same molecule?
**A.** > 100 µM

**Q.** And the GI50 (CCRF-CEM leukemia)?
**A.** 37.7 µM

**Q.** And the TGI (CCRF-CEM leukemia)?
**A.** > 100 µM

**Q.** And the GI50 (SR leukemia)?
**A.** 9.35 µM

**Q.** What about the TGI (SR leukemia) of the same molecule?
**A.** 29.3 µM

**Q.** And the GI50 (PC-3 prostate)?
**A.** > 100 µM

**Q.** And the TGI (PC-3 prostate)?
**A.** > 100 µM

**Q.** What about the GI50 (NCI-H23 lung) of the same molecule?
**A.** 7.12 µM

**Q.** And the GI50 (HL-60(TB) leukemia)?
**A.** > 100 µM

**Q.** What about the TGI (HL-60(TB) leukemia) of the same molecule?
**A.** > 100 µM

**Q.** What about the GI50 (K-562 leukemia) of the same molecule?
**A.** 34.3 µM

**Q.** And the TGI (K-562 leukemia)?
**A.** > 100 µM

**Q.** What about the GI50 (RPMI-8226 leukemia) of the same molecule?
**A.** 99.7 µM

**Q.** And the TGI (RPMI-8226 leukemia)?
**A.** > 100 µM

**Q.** What about the GI50 (MOLT-4 leukemia) of the same molecule?
**A.** 58.1 µM

**Q.** And the TGI (MOLT-4 leukemia)?
**A.** > 100 µM

**Q.** Which results are given for `Nc1nc2cc(CC[C@H]3C[C@@H](n4ccc5c(N)ncnc54)[C@H](O)[C@@H]3O)ccc2cc1Br`?
**A.** GI50 (OVCAR-4 ovarian): 0.4 µM; TGI (OVCAR-4 ovarian): 19 µM; GI50 (MCF7 breast): 0.983 µM; TGI (MCF7 breast): 15.8 µM; GI50 (COLO 205 colon): 4.18 µM; TGI (COLO 205 colon): 19.5 µM; GI50 (A549 NSCLC): 0.644 µM; TGI (A549 NSCLC): 15.8 µM; GI50 (HCT-15 colon): 9.52 µM; TGI (HCT-15 colon): 21.8 µM; GI50 (A498 renal): 2.11 µM; TGI (A498 renal): 11.8 µM; GI50 (OVCAR-3 ovarian): 2.88 µM; TGI (OVCAR-3 ovarian): 13.8 µM; GI50 (HOP-92 NSCLC): 12.4 µM; TGI (HOP-92 NSCLC): 24.9 µM; GI50 (SNB-19 CNS): 11.5 µM; TGI (SNB-19 CNS): 23.9 µM; GI50 (HCC-2998 colon): 10.5 µM; TGI (HCC-2998 colon): 22.5 µM; GI50 (SK-MEL-5 melanoma): 0.309 µM; TGI (SK-MEL-5 melanoma): 2.33 µM; GI50 (M14 melanoma): 10.6 µM; TGI (M14 melanoma): 22.5 µM; GI50 (TK-10 renal): 12.6 µM; TGI (TK-10 renal): 25.4 µM; GI50 (ACHN renal): 13.4 µM; TGI (ACHN renal): 26.5 µM; GI50 (DU-145 prostate): 13.4 µM; TGI (DU-145 prostate): 26.5 µM; GI50 (UO-31 renal): 11.9 µM; TGI (UO-31 renal): 24.4 µM; GI50 (IGROV1 ovarian): 6.55 µM; TGI (IGROV1 ovarian): 20.8 µM; GI50 (UACC-62 melanoma): 11.5 µM; TGI (UACC-62 melanoma): 23.7 µM; GI50 (SN12C renal): 11.5 µM; TGI (SN12C renal): 23.8 µM; GI50 (HCT-116 colon): 1.66 µM; TGI (HCT-116 colon): 15.5 µM; GI50 (OVCAR-8 ovarian): 1.46 µM; TGI (OVCAR-8 ovarian): 14.3 µM; GI50 (MDA-MB-468 breast): 0.0253 µM; TGI (MDA-MB-468 breast): 0.433 µM; GI50 (CCRF-CEM leukemia): 0.3 µM; TGI (CCRF-CEM leukemia): 10.4 µM; GI50 (SF-295 CNS): 12.4 µM; TGI (SF-295 CNS): 25.2 µM; GI50 (HT29 colon): 1.85 µM; TGI (HT29 colon): 10.4 µM; GI50 (UACC-257 melanoma): 1.42 µM; TGI (UACC-257 melanoma): 11.5 µM; GI50 (HS 578T breast): 11.7 µM; TGI (HS 578T breast): 24.1 µM; GI50 (KM12 colon): 3.42 µM; TGI (KM12 colon): 20.7 µM; GI50 (SF-539 CNS): 10.6 µM; TGI (SF-539 CNS): 22.5 µM; GI50 (CAKI-1 renal): 11.5 µM; TGI (CAKI-1 renal): 23.9 µM; GI50 (NCI-H226 lung): 1.62 µM; TGI (NCI-H226 lung): 15.5 µM; GI50 (NCI-H460 NSCLC): < 0.01 µM; TGI (NCI-H460 NSCLC): 1.08 µM; GI50 (NCI-H522 lung): 11 µM; TGI (NCI-H522 lung): 23 µM; GI50 (PC-3 prostate): 11.4 µM; TGI (PC-3 prostate): 23.7 µM; GI50 (MALME-3M melanoma): 10.2 µM; TGI (MALME-3M melanoma): 21.9 µM; GI50 (BT-549 breast): 4.06 µM; TGI (BT-549 breast): 18.3 µM; GI50 (LOX IMVI melanoma): 0.579 µM; TGI (LOX IMVI melanoma): 12.2 µM; GI50 (NCI-H23 lung): 0.392 µM; TGI (NCI-H23 lung): 18.8 µM; GI50 (SNB-75 CNS): 1.95 µM; TGI (SNB-75 CNS): 16.5 µM; GI50 (SK-OV-3 ovarian): 12 µM; TGI (SK-OV-3 ovarian): 24.5 µM; GI50 (SF-268 CNS): < 0.01 µM; TGI (SF-268 CNS): 1.44 µM; GI50 (EKVX NSCLC): 1 µM; TGI (EKVX NSCLC): 16.4 µM; GI50 (HOP-62 NSCLC): 0.37 µM; TGI (HOP-62 NSCLC): 12.1 µM; GI50 (MDA-MB-435 melanoma): 12 µM; TGI (MDA-MB-435 melanoma): 24.5 µM; GI50 (SW-620 colon): 11.8 µM; TGI (SW-620 colon): 24.1 µM; GI50 (SK-MEL-28 melanoma): 18.2 µM; TGI (SK-MEL-28 melanoma): 32.2 µM; GI50 (T-47D breast): < 0.01 µM; TGI (T-47D breast): 2.59 µM; GI50 ([…]-0 renal): 11.5 µM; TGI (786-0 renal): 23.7 µM; GI50 (HL-60(TB) leukemia): 13.8 µM; TGI (HL-60(TB) leukemia): 27 µM; GI50 (K-562 leukemia): 0.348 µM; TGI (K-562 leukemia): 15.5 µM; GI50 (RXF 393 renal): 0.246 µM; TGI (RXF 393 renal): 16.3 µM; GI50 (U251 glioblastoma): 5.85 µM; TGI (U251 glioblastoma): 20.3 µM; GI50 (RPMI-8226 leukemia): 2.14 µM; TGI (RPMI-8226 leukemia): 15.4 µM; GI50 (NCI/ADR-RES ovarian): 5.73 µM; TGI (NCI/ADR-RES ovarian): 18.6 µM; GI50 (NCI-H322M lung): 0.35 µM; TGI (NCI-H322M lung): 5.88 µM; GI50 (MDA-MB-231 breast): 3.2 µM; TGI (MDA-MB-231 breast): 20.5 µM; GI50 (OVCAR-5 ovarian): 11.4 µM; TGI (OVCAR-5 ovarian): 23.8 µM; GI50 (MOLT-4 leukemia): < 0.01 µM
